Results taken from ChEMBL document CHEMBL3832881, “CO-ADD antimicrobial screening data of OSM samples” (2017).
In brackets after ≈: the same amount, converted by molar mass.

Columns and labels:
Staphylococcus aureus [1] = test: Antibacterial activity against Staphylococcus aureus MRSA ATCC 43300; Growth inhibition at 32 ug/mL in CAMBH media using NBS plates.; type: functional, ATCC 43300; MRSA; conditions: ASSAY_TEST Inhibition of Bacterial Growth, CONC 32 ug.mL-1, detection method Absorption (OD600), MEDIA CAMHB, plate type NBS, 384well, time 18 hr
Candida albicans [2] = test: Antifungal activity against Candida albicans ATCC 90028; Growth inhibition at 32 ug/mL in YNB media using NBS plates.; type: functional, ATCC 90028; CLSI reference; conditions: CLSI reference, ASSAY_TEST Inhibition of Fungal Growth, CONC 32 ug.mL-1, detection method Absorption (OD600), plate type NBS, 384well, time 18 hr
Cryptococcus neoformans [3] = test: Antifungal activity against Cryptococcus neoformans H99 ATCC 208821; Growth inhibition at 32 ug/mL in YNB media using NBS plates.; type: functional, ATCC 208821; H99 Type strain; conditions: H99 Type strain, ASSAY_TEST Inhibition of Fungal Growth, CONC 32 ug.mL-1, detection method Resazurin, Absorption (OD600-OD570), plate type NBS, 384well, time 18 hr
Acinetobacter baumannii [4] = test: Antibacterial activity against Acinetobacter baumannii ATCC 19606; Growth inhibition at 32 ug/mL in CAMBH media using NBS plates.; type: functional, ATCC 19606; Type strain; conditions: Type strain, ASSAY_TEST Inhibition of Bacterial Growth, CONC 32 ug.mL-1, detection method Absorption (OD600), MEDIA CAMHB, plate type NBS, 384well, time 18 hr
Pseudomonas aeruginosa [5] = test: Antibacterial activity against Pseudomonas aeruginosa ATCC 27853; Growth inhibition at 32 ug/mL in CAMBH media using NBS plates.; type: functional, ATCC 27853; Type strain; conditions: Type strain, ASSAY_TEST Inhibition of Bacterial Growth, CONC 32 ug.mL-1, detection method Absorption (OD600), MEDIA CAMHB, plate type NBS, 384well, time 18 hr
Escherichia coli [6] = test: Antibacterial activity against Escherichia coli ATCC 25922; Growth inhibition at 32 ug/mL in CAMBH media using NBS plates.; type: functional, ATCC 25922; Type strain; conditions: Type strain, ASSAY_TEST Inhibition of Bacterial Growth, CONC 32 ug.mL-1, detection method Absorption (OD600), MEDIA CAMHB, plate type NBS, 384well, time 18 hr
Klebsiella pneumoniae [7] = test: Antibacterial activity against Klebsiella pneumoniae MDR ATCC 70063; Growth inhibition at 32 ug/mL in CAMBH media using NBS plates.; type: functional, ATCC 700603; MDR; conditions: ATCC 700603, ASSAY_TEST Inhibition of Bacterial Growth, CONC 32 ug.mL-1, detection method Absorption (OD600), MEDIA CAMHB, plate type NBS, 384well, time 18 hr
Cryptococcus neoformans [8] = test: Antifungal activity against Cryptococcus neoformans H99 ATCC 208821; MIC in YNB media using NBS plates.; type: functional, ATCC 208821; H99 Type strain; conditions: H99 Type strain, ASSAY_TEST Inhibition of Fungal Growth, detection method Resazurin, Absorption (OD600-OD570), plate type NBS, 384well, time 18 hr
Pseudomonas aeruginosa [9] = test: Antibacterial activity against Pseudomonas aeruginosa ATCC 27853; MIC in CAMBH media using NBS plates.; type: functional, ATCC 27853; Type strain; conditions: Type strain, ASSAY_TEST Inhibition of Bacterial Growth, detection method Absorption (OD600), MEDIA CAMHB, plate type NBS, 384well, time 18 hr
[10] = Cytotoxicity against HEK293 cells; CC50 by Resazurin assay in DMEM (10% FBS) media using TC plates; type: toxicity, cell-based, ATCC CRL1573; set-up: time 18 hr; conditions: human
Acinetobacter baumannii [11] = test: Antibacterial activity against Acinetobacter baumannii ATCC 19606; MIC in CAMBH media using NBS plates.; type: functional, ATCC 19606; Type strain; conditions: Type strain, ASSAY_TEST Inhibition of Bacterial Growth, detection method Absorption (OD600), MEDIA CAMHB, plate type NBS, 384well, time 18 hr
Staphylococcus aureus [12] = test: Antibacterial activity against Staphylococcus aureus MRSA ATCC 43300; MIC in CAMBH media using NBS plates.; type: functional, ATCC 43300; MRSA; conditions: ASSAY_TEST Inhibition of Bacterial Growth, detection method Absorption (OD600), MEDIA CAMHB, plate type NBS, 384well, time 18 hr
Escherichia coli [13] = test: Antibacterial activity against Escherichia coli ATCC 25922; MIC in CAMBH media using NBS plates.; type: functional, ATCC 25922; Type strain; conditions: Type strain, ASSAY_TEST Inhibition of Bacterial Growth, detection method Absorption (OD600), MEDIA CAMHB, plate type NBS, 384well, time 18 hr
Candida albicans [14] = test: Antifungal activity against Candida albicans ATCC 90028; MIC in YNB media using NBS plates.; type: functional, ATCC 90028; CLSI reference; conditions: CLSI reference, ASSAY_TEST Inhibition of Fungal Growth, detection method Absorption (OD630), plate type NBS, 384well, time 18 hr
Klebsiella pneumoniae [15] = test: Antibacterial activity against Klebsiella pneumoniae MDR ATCC 70063; MIC in CAMBH media using NBS plates.; type: functional, ATCC 700603; MDR; conditions: ATCC 700603, ASSAY_TEST Inhibition of Bacterial Growth, detection method Absorption (OD600), MEDIA CAMHB, plate type NBS, 384well, time 18 hr

SMILES | inhibition at 32 µg/mL (Staphylococcus aureus [1]) [%] | inhibition at 32 µg/mL (Candida albicans [2]) [%] | inhibition at 32 µg/mL (Cryptococcus neoformans [3]) [%] | inhibition at 32 µg/mL (Acinetobacter baumannii [4]) [%] | inhibition at 32 µg/mL (Pseudomonas aeruginosa [5]) [%] | inhibition at 32 µg/mL (Escherichia coli [6]) [%] | inhibition at 32 µg/mL (Klebsiella pneumoniae [7]) [%] | MIC (Cryptococcus neoformans [8]) [µg/mL] | MIC (Pseudomonas aeruginosa [9]) [µg/mL] | CC50 at 18 h [10] [µg/mL] | MIC (Acinetobacter baumannii [11]) [µg/mL] | MIC (Staphylococcus aureus [12]) [µg/mL] | MIC (Escherichia coli [13]) [µg/mL] | MIC (Candida albicans [14]) [µg/mL] | MIC (Klebsiella pneumoniae [15]) [µg/mL]
c1cc2c(s1)CCOC21CCN(Cc2ccc3c(c2)OCCO3)CC1 | 17.4 | 1 | -5.8 | 10.2 | 8.6 | 16.1 | 19.3 |  |  |  |  |  |  |  | 
Cc1cc(/C=C2\S/C(=N\c3ccccc3)NC2=O)c(C)n1-c1ccc(C(F)(F)F)cc1 | 17.9 | 9.8 | -1.7 | 9.1 | 7.3 | 6.8 | 6.7 |  |  |  |  |  |  |  | 
c1ccc(CN2CCC3(CC2)OCCc2ccsc23)cc1 | 17.1 | 3.6 | -4 | 9.8 | 11.9 | 17.1 | 8.6 |  |  |  |  |  |  |  | 
c1ccc(CN2CCC3(CC2)OCCc2cc(-c4ccccc4)sc23)cc1 | 18.9 | 9.1 | -0.6 | 6.6 | -1.5 | 14.3 | 12.4 |  |  |  |  |  |  |  | 
CCN1C(=O)c2cccc3c(-n4cc(CN5CCCNCCN(Cc6cn(-c7ccc8c9c(cccc79)C(=O)N(CC)C8=O)nn6)CCCNCC5)nn4)ccc(c23)C1=O.O=C(O)C(F)(F)F.O=C(O)C(F)(F)F | 54 | 5.2 | 1.4 | 31.4 | 15.2 | 20.4 | 17.2 | > 32 | > 32 | > 32 | > 32 | > 32 | > 32 | > 32 | > 32
Clc1ccc(-c2nnc3cncc(OCCc4ccccc4)n23)cc1 | 14.5 | 88.8 | -0.5 | 5.7 | 8.6 | 5.2 | 7.5 | > 32 | > 32 | > 32 | > 32 | > 32 | > 32 | 16 (≈ 45.6 µM) | > 32
CC(C)C[C@H](NC(=O)[C@H](CCCCN)NC(=O)Cn1cc(CN2CCCNCCNCCCNCC2)nn1)C(=O)N[C@H](C(=O)N[C@@H](Cc1ccccc1)C(=O)N[C@@H](Cc1ccccc1)C(=O)O)C(C)C | 16.9 | 1.3 | -3.4 | 13.1 | 5 | 21.4 | 6 |  |  |  |  |  |  |  | 
COc1ccc(-n2c(C)cc(/C=C3\S/C(=N\c4ccccc4)NC3=O)c2C)cc1 | 10.6 | 7.8 | -4.3 | -2.8 | -4.2 | 2.8 | -1.1 |  |  |  |  |  |  |  | 
Clc1ccccc1-c1nnc2cncc(OCCc3ccccc3)n12 | 15.3 | 1.8 | -5.6 | 5.2 | 14.7 | 17.8 | 6.2 |  |  |  |  |  |  |  | 
Nc1ncnc2cc(-c3ccc(C(=O)N4CCOCC4)cc3)sc12 | 22.2 | 1 | -1.2 | 8.3 | 2.4 | 8.6 | 5.4 |  |  |  |  |  |  |  | 
O=C(CCCC[C@@H]1SC[C@@H]2NC(=O)N[C@@H]21)NCCCn1cc(CN2CCCNCCNCCCNCC2)nn1 | 19.4 | 2.8 | 41.9 | 23 | 10.9 | 15.2 | 12.5 |  |  |  |  |  |  |  | 
COc1ccc(-n2c(C)cc(CN3CCC4(CC3)OCCc3sccc34)c2C)cc1 | 55 | 2.4 | -0.2 | 4.6 | 22.6 | 22.4 | 15.4 | > 32 | > 32 | > 32 | > 32 | > 32 | > 32 | > 32 | > 32
COc1ccc(-n2c(C)cc(/C=C3\S/C(=N\c4cccc(O)c4)NC3=O)c2C)cc1 | 8.9 | 2.5 | -6.8 | -4.5 | -0.1 | 2.1 | -1.3 |  |  |  |  |  |  |  | 
COc1cc2c(cc1OC)C1(CCN(Cc3ccccc3)CC1)OCC2 | 16.9 | 2.2 | -8.2 | 7.9 | 23.6 | 17.8 | 16.4 |  |  |  |  |  |  |  | 
O=C(Nc1cccc(Cl)c1)c1cncc2nnc(-c3ccc(OC(F)(F)F)cc3)n12 | 5.8 | 3.5 | -2.8 | -5.2 | 4 | 3.5 | 1.6 |  |  |  |  |  |  |  | 
O=C(Nc1cccc(Cl)c1F)c1cncc2nnc(-c3ccc(OC(F)F)cc3)n12 | 1.4 | 1.1 | -7.5 | -9.8 | 1 | -1.1 | -0.7 |  |  |  |  |  |  |  | 
Cc1cc(C(=O)OCC(N)=O)c(C)n1-c1ccc(F)cc1 | 24.9 | 7.5 | -2.2 | 12.2 | 6 | 13.4 | 12.3 |  |  |  |  |  |  |  | 
Nc1ncnc2cc(-c3cccc(S(N)(=O)=O)c3)sc12 | 27.6 | 8.9 | -4.6 | 7.5 | 2.3 | 17.9 | 9.5 |  |  |  |  |  |  |  | 
